{
  "source": "patent US20230000806A1",
  "about": "“COMPOSITIONS AND METHODS FOR GLUTATHIONE ENHANCEMENT FOR USE IN BRAIN HEALTH” (SOCIETE DES PRODUITS NESTLE S.A., priority 2019, published 2023)",
  "key": {"rats [1]": {"tested_on": "rats", "experiment": "Operant conditioning, progressive ratio reinforcement schedule (motivated behaviour)", "type": "in vivo, rat", "details": "vs vehicle", "procedure": "Adult male outbred rats were trained for nose poke for saccharine food pellets for one week on an FR1 training schedule as described in the methods below. Rats were then treated with either normal drinking water (vehicle) or N-acetyl cysteine (NAC) in the drinking water (FIG. 22A) at a dose that was previously shown to enhance GSH levels (FIG. 22B). Following 2 weeks of treatment, rats were given an additional 2 training sessions, followed 24 h later by a progressive ratio session designed to test their motivated behaviour. During this progressive ratio session, rats have to increasingly work harder to earn the saccharine pellet, as described in the methods below. […] The breakpoint is defined as the last step in the session where the animals received a reward and is a direct correlate of their willingness to exert an effort. […] Animals: Adult male Wistar rats (Charles Rivers, Saint-German-Nuelle, France) weighing 250-275 gr at the beginning of the experiment were used for all experiments. Rats were individually housed in cages in housing colonies on a 12:12 h reversed light:dark cycle with lights on at 20:00, and lights-off at 8:00. Food and water were available ad libitum. Following a week of acclimatization to the animal facilities, rats were handled for 2 min per day for three days prior to the start of the experiments, in order to habituate to the experimenters. Operant conditioning: Ten days after introduction to the reversed day-night cycle, rats started training in a fixed ratio 1 reinforcement schedule (FR1). Operant chambers (Coulbourn Instruments, Holliston, Mass., US), placed in sound attenuating cubicles, were equipped with a grid, underneath which a tray with standard bedding material was placed for collection of feces and urine after each training session. Each chamber had one food tray and two ports placed on either side of the tray. A cue light was placed in each port and the food tray, whereas a house light was placed above the food tray. The right-hand side port of each chamber was designated as “active”, meaning that spontaneous nosepoking would result in the drop of one 45 mg food pellet (Bio-Serv, Flemington, N.J., USA) to the food tray. Upon nosepoking in the active port, the cue and house lights were turned off, while the tray light turned on and the pellet dropped to the food tray. […] Subsequently, the chamber returned to its initial condition. Each training session lasted maximally two hours or until a rat acquired 100 pellets. Each rat received six training sessions (one training on each day for five consecutive days, followed by two days without training and one training session on day 8). Only rats that finished at least two training sessions acquiring 100 pellets before the two-hour mark were used for progressive ratio experiments. Subsequently, rats were treated with N-acetyl cysteine in the drinking water (500 mg/L) or continued having access to normal water (control). After two weeks of treatment, rats were exposed to another two days of FR1 training to ensure their training performance was similar to pre-treatment levels. To test motivated behaviour, rats were exposed to a progressive ratio reinforcement schedule (progressive ratio test). Progressive ratio sessions were identical to training sessions except that the operant requirement in each trial (T) was the integer (rounded down) of the function 1.4^(T-1) starting at one nosepoke for the first three trials and increasing in subsequent trials for rats (Wanat et al. Nat Neurosci. 2013; 16(4):383-5). Progressive ratio sessions lasted two hours. Correct nosepokes (i.e. nosepokes in the active port and outside the timeout period, thus resulting in food delivery) were calculated to evaluate behavioural performance, as well as the number of acquired rewards and the last completed ratio (breakpoint). Investigation of the Nucleus accumbens was undertaken in cannulated rats which were then moved to a reverse light-dark cycle to recover for 10 days. […]"}, "rats [2]": {"tested_on": "rats", "experiment": "GSH levels in the nucleus accumbens of treated rats", "type": "in vivo, rat"}, "rat primary astrocytes [3]": {"tested_on": "rat primary astrocytes", "experiment": "Cytoplasmic reactive oxygen species (ROS) measurement with CellROX Deep Red", "type": "cell-based", "details": "48 hrs after treatment; oxidative stress triggered by 250 μM tBHP for 1 hour; vs control", "procedure": "Cytoplasmic ROS was measured in rat primary astrocytes in culture by CellROX® Deep Red reagent, a novel cell-permeant dye with absorption/emission maxima of ˜644/665 nm. CellROX® Deep Red reagent while in a reduced state is non-fluorescent and becomes fluorescent upon oxidation by reactive oxygen species with emission maxima ˜665. CellMask™-green stains plasma membrane and DAPI stains nuclei. We used the green channel and the dapi to segment the image in cytoplasmic and nuclear areas and measure the CellROX deep red signal in these areas. As CellROX® Deep Red is a better read out for cytoplasmic ROS, we measure the average intensity in the cytoplasm and normalized to the average cytoplasmic area. Cell count using DAPI was performed to establish toxicity or cell detachment for each condition. Images were taken to cover all the area of the well where cells were seeded and at least 4 technical replicates were done for each condition and for each biological replicate. Measurements were performed at 48 hrs after treatment at baseline and after oxidative stress where oxidative stress was triggered by 250 μM tBHP for 1 hour. Results were compared to the control condition at baseline for each biological replicate and for each condition."}, "Nrf2": {"tested_on": "Nrf2", "experiment": "Measurement of nuclear Nrf2 in astrocytes (immunostaining)", "type": "cell-based, rat", "details": "48 hrs after treatment; for increase Nrf2 levels in the cell nucleus: significant; for Nrf2 activation: vs control (water or 0.1% DSMO)", "procedure": "Nuclear Nrf2 was measured in rat primary astrocytes in culture. The cells were stained with Nrf2 (Abcam ab89443 1:500), Tubulin (Abcam ab 89984 1:1000) antibodies and DAPI as nuclear counterstaining. We used the tubulin channel and the DAPI to segment the image in cytoplasmic and nuclear areas and measure the Nrf2 signal in these areas. We measure the average intensity in the nucleus and normalized to the average nuclear area. Cell count using DAPI was performed to establish toxicity or cell detachment for each condition. Images were taken to cover all the area of the well where cells were seeded and at least 6 technical replicates were done for each condition and for each biological replicate. Measurements were performed 48 hrs after treatment with each of the compounds: N-Acetylcysteine dissolved in water, while Puerarine, Sulfurophane, Taurine at different doses were dissolve in a 0.1% DSMO final solution. They were compared to the control in each condition which was water or 0.1% DSMO alone. Results were compared to the control condition for each biological replicate and for each condition. Statistics were done using Kruskal-Wallis Multiple Comparison test."}, "rat primary astrocytes [4]": {"tested_on": "rat primary astrocytes", "experiment": "Intracellular GSH by GSH-Glo Assay in rat primary astrocyte culture", "type": "cell-based", "details": "standard culture conditions (no cysteine depletion); 48 hrs after treatment; normalized to total proteins", "procedure": "Intracellular GSH was measured in rat primary astrocytes in culture by using a GSH-Glo™ Assay, which is a luminescent-based assay for the detection and quantification of reduced and/or total glutathione levels in cells. The assay converted luciferin derivatives into luciferin in the presence of GSH. The reaction was catalyzed by a glutathione S-transferase (GST) enzyme supplied in the kit. The luciferin formed was detected in a coupled reaction using Ultra-Glo™ Recombinant Luciferase that generated a glow type luminescence that was proportional to the amount of glutathione present in cells. A standard curve was used for each biological replicate and at least 4 technical replicates were done for each condition and for each biological replicate. 10% of lysate of each technical and biological replicate was used to measure protein amount by BCA and used to normalize the GSH intracellular content to total proteins. Buthionine sulfoximine (BSO) a specific inhibitor of γ-glutamylcysteine ligase (GCL) was added at 15 mM at the time of the start of the treatment to confirm the specificity of the readout. Measurements were performed 48 hrs after treatment. Results were compared to the control condition for each biological replicate and for each condition."}, "rat primary astrocytes [5]": {"tested_on": "rat primary astrocytes", "experiment": "Intracellular GSH in astrocytes in medium reduced in cysteine and methionine", "type": "cell-based", "details": "medium depleted of methionine and cystine, supplemented with 15% FBS", "protocol": "Intracellular GSH was measured in rat primary astrocytes in culture by using a GSH-Glo™ Assay, which is a luminescent-based assay for the detection and quantification of reduced and/or total glutathione levels in cells. The assay converted luciferin derivatives into luciferin in the presence of GSH. The reaction was catalyzed by a glutathione S-transferase (GST) enzyme supplied in the kit. The luciferin formed was detected in a coupled reaction using Ultra-Glo™ Recombinant Luciferase that generated a glow type luminescence that was proportional to the amount of glutathione present in cells. A standard curve was used for each biological replicate and at least 4 technical replicates were done for each condition and for each biological replicate. 10% of lysate of each technical and biological replicate was used to measure protein amount by BCA and used to normalize the GSH intracellular content to total proteins. […] Measurements were performed 48 hrs after treatment. […] To measure GSH increase after N-acetyl cysteine (Nac) and L-cysteine supplementation, rat primary astrocytes were cultured in medium depleted of methionine (a precursor of cysteine) and cystine but still supplemented with 15% FBS to not have a full depletion but rather a reduction of these amino acids. Experiments were performed only with the same batch of FBS to avoid any difference in amino-acid content amongst batches. […]"}, "[6]": {"details": "single infusion in the Nucleus Accumbens, 1 μl of 7 μg/μl, 24 hours before"}, "[7]": {"details": "NAC in the drinking water (500 mg/L), 2 weeks"}},
  "data": [
    {"compound": "CCCCS(=N)(=O)CCC(N)C(=O)O", "note": "(stereo not drawn) [BSO, Buthionine sulfoximine]", "values": [
      {"measurement": "change in breakpoint (PR-schedule)", "setting": "rats [1]; [6]", "result": "−68", "unit": "%"},
      {"measurement": "change in correct nosepokes (PR-schedule)", "setting": "rats [1]; [6]", "result": "−60", "unit": "%"},
      {"measurement": "change in rewards (PR-schedule)", "setting": "rats [1]; [6]", "result": "−22", "unit": "%"},
      {"measurement": "reduction of GSH levels in the Nucleus Accumbens", "setting": "rats [2]; single infusion in the Nucleus Accumbens, 1 μl of 7 μg/μl, 24 hours before the test, vs vehicle", "result": 29, "unit": "%"}
    ]},
    {"compound": "C[N+](C)(C)C(Cc1c[nH]c(S)n1)C(=O)O.[OH-]", "note": "(stereo not drawn) [Ergothioneine, 1-carboxy-2-[2-mercaptoimidazole-4-(or 5)-yl]ethyl]-trimethyl-ammonium hydroxide]", "values": [
      {"measurement": "reactive oxygen species after oxidative stress", "setting": "rat primary astrocytes [3]", "result": "decreases reactive oxygen species"},
      {"measurement": "increase Nrf2 levels in the cell nucleus", "setting": "Nrf2; 0.5 mM", "result": "≤ 18", "unit": "%"},
      {"measurement": "intracellular glutathione", "setting": "rat primary astrocytes [4]", "result": "increases intracellular glutathione"}
    ]},
    {"compound": "N[C@@H](CS)C(=O)O", "note": "[L-cysteine]", "values": [
      {"measurement": "GSH intracellular level", "setting": "rat primary astrocytes [5]", "result": "significantly increase the GSH intracellular level"}
    ]},
    {"compound": "CCNC(=O)CC[C@H](N)C(=O)O", "note": "[L-theanine]", "values": [
      {"measurement": "reactive oxygen species after oxidative stress", "setting": "rat primary astrocytes [3]", "result": "decreases reactive oxygen species"},
      {"measurement": "intracellular glutathione", "setting": "rat primary astrocytes [4]", "result": "increases intracellular glutathione"}
    ]},
    {"compound": "CC(=O)N[C@@H](CS)C(=O)O", "note": "[N-Acetylcysteine, reference compound]", "values": [
      {"measurement": "reactive oxygen species after oxidative stress", "setting": "rat primary astrocytes [3]", "result": "decreases reactive oxygen species"},
      {"measurement": "Nrf2 activation", "setting": "Nrf2", "result": "does not activate Nrf2"},
      {"measurement": "intracellular glutathione", "setting": "rat primary astrocytes [4]", "result": "does not increase intracellular glutathione"},
      {"measurement": "breakpoint level in progressive ratio session", "setting": "rats [1]; [7]", "result": "significantly higher breakpoint level"},
      {"measurement": "nose pokes in progressive ratio session", "setting": "rats [1]; [7]", "result": "significantly more nose pokes"},
      {"measurement": "number of rewards in progressive ratio session", "setting": "rats [1]; [7]", "result": "greater number of rewards"},
      {"measurement": "GSH intracellular level", "setting": "rat primary astrocytes [5]", "result": "significantly increase the GSH intracellular level"},
      {"measurement": "GSH in the nucleus accumbens", "setting": "rats [2]; NAC in the drinking water (500 mg/L), 2 weeks, vs vehicle treated rats", "result": "enhanced GSH in the nucleus accumbens"}
    ]},
    {"compound": "O=c1c(-c2ccc(O)cc2)coc2c([C@@H]3O[C@H](CO)[C@@H](O)[C@H](O)[C@H]3O)c(O)ccc12", "note": "[Puerarine]", "values": [
      {"measurement": "reactive oxygen species after oxidative stress", "setting": "rat primary astrocytes [3]", "result": "decreases reactive oxygen species after oxidative stress in a dose dependent manner"},
      {"measurement": "increase Nrf2 levels in the cell nucleus", "setting": "Nrf2; highest dose of 10 μm", "result": "≤ 20", "unit": "%"},
      {"measurement": "intracellular glutathione", "setting": "rat primary astrocytes [4]", "result": "increases intracellular glutathione"}
    ]},
    {"compound": "C[S+]([O-])CCCCN=C=S", "note": "(stereo not drawn) [Sulfurophane]", "values": [
      {"measurement": "reactive oxygen species after oxidative stress", "setting": "rat primary astrocytes [3]", "result": "decreases reactive oxygen species"},
      {"measurement": "increase Nrf2 levels in the cell nucleus", "setting": "Nrf2; 2 μM", "result": "≤ 20", "unit": "%"},
      {"measurement": "intracellular glutathione", "setting": "rat primary astrocytes [4]", "result": "increases intracellular glutathione"}
    ]},
    {"compound": "NCCS(=O)(=O)O", "note": "[Taurine, 2-aminoethanesulfonic acid]", "values": [
      {"measurement": "reactive oxygen species after oxidative stress", "setting": "rat primary astrocytes [3]", "result": "decreases reactive oxygen species"},
      {"measurement": "Nrf2 activation", "setting": "Nrf2", "result": "does not activate Nrf2"},
      {"measurement": "intracellular glutathione", "setting": "rat primary astrocytes [4]", "result": "increases intracellular glutathione"}
    ]}
  ]
}
